Assay results reported in PubChem BioAssay AID1197 (NMMLSC, 2008).
Active and inactive are the calls of the source. No rule for the calls is given here.

test system: not listed separately; test: cytotoxicity in LNCaP prostate cancer cells – cell-based, flow cytometry, event count, cytotoxicity control for prostate cell differentiation activator project, dose response (AID 1197); conditions: LNCaP cell loss, flow cytometry event count, 4 d; at 30 µM (top of the series)

**Q.** With CCN(CC)CC(=O)Nc1ccc(-c2nc3cc(NC(=O)CN(CC)CC)ccc3o2)cc1 as the compound, how does the event count (lower = more killing) read?
**A.** The event count (lower = more killing) was 98.5% (inactive).

**Q.** With Cc1cccc(-c2nsc(SCC(=O)Nc3nccs3)n2)c1 as the compound, how does the event count (lower = more killing) read?
**A.** The event count (lower = more killing) was 296% (inactive).

**Q.** Which event count (lower = more killing) does the source give for Cn1c(=O)[nH]c(=O)c2c1nc(Br)n2CCCSc1nc2ccccc2o1 here?
**A.** Its event count (lower = more killing) is 150% (inactive).

**Q.** For CCOc1ccc(NC(=O)COc2nsnc2N2CCCCC2)cc1, which event count (lower = more killing) is on record?
**A.** The event count (lower = more killing) was 160% (inactive).

**Q.** For COc1ccc(N2CCN(CCCNC(=O)CCCn3c(=O)[nH]c4ccsc4c3=O)CC2)cc1, which event count (lower = more killing) is on record?
**A.** The event count (lower = more killing) was 175% (inactive).

**Q.** Which event count (lower = more killing) does the source give for CN(CC(O)COc1ccc(OCC(O)CN(C)C2CCCCC2)cc1)C1CCCCC1 (centres undefined) here?
**A.** Its event count (lower = more killing) is 126% (inactive).

**Q.** Which event count (lower = more killing) does the source give for COC(=O)c1cc(-c2ccccc2)sc1NC(=O)c1cc(C)on1 here?
**A.** Its event count (lower = more killing) is 394% (inactive).

**Q.** For Cc1cc(N2CCN(C)CC2)nc2ccc(NC(=O)c3ccc(Br)o3)cc12, which event count (lower = more killing) is on record?
**A.** The event count (lower = more killing) was 422% (inactive).

**Q.** For CCN(CC)CCCNC(=O)c1cc2c(-c3ccc(Cl)cc3)nn(C)c2s1, which event count (lower = more killing) is on record?
**A.** Its event count (lower = more killing) is 22.2% (inactive).

**Q.** With CC1CCCCN1CCNC(=O)c1cc2c(-c3ccccc3F)nn(C)c2s1 (centres undefined) as the compound, how does the event count (lower = more killing) read?
**A.** Its event count (lower = more killing) is 103% (inactive).

**Q.** For CCn1c(=N)n(CC(O)COc2cccc(C)c2)c2ccccc21 (centres undefined), which event count (lower = more killing) is on record?
**A.** Its event count (lower = more killing) is 275% (inactive).

**Q.** Which event count (lower = more killing) does the source give for CCn1c(=O)cc(SCC(=O)NCCCN2CCN(c3ccccc3F)CC2)c2ccccc21 here?
**A.** Its event count (lower = more killing) is 210% (inactive).

**Q.** Which event count (lower = more killing) does the source give for Cc1nc2ncnn2c(C)c1CCC(=O)NCCCN1CCN(c2cccc(Cl)c2)CC1 here?
**A.** Its event count (lower = more killing) is 374% (inactive).

**Q.** Which event count (lower = more killing) does the source give for CCOc1cccc2cc(-c3cn4cc(C)ccc4n3)c(=O)oc12 here?
**A.** Its event count (lower = more killing) is 76.2% (inactive).

**Q.** With O=S1(=O)C=C(Sc2nc3ccccc3s2)c2ccccc21 as the compound, how does the event count (lower = more killing) read?
**A.** The event count (lower = more killing) was 150% (inactive).

**Q.** Which event count (lower = more killing) does the source give for O=c1cc(-c2ccccc2)[nH]c2ccccc12 here?
**A.** Its event count (lower = more killing) is 83.8% (inactive).

**Q.** Which event count (lower = more killing) does the source give for CCN1CCN(c2ncc(C(=O)Nc3cc(Cl)c(OC)cc3OC)c3ccccc23)CC1 here?
**A.** Its event count (lower = more killing) is 208% (inactive).

**Q.** With Cc1ccc2c(c1)-c1c(cnn1CC(=O)Nc1ccccc1N1CCN(C)CC1)CO2 as the compound, how does the event count (lower = more killing) read?
**A.** The event count (lower = more killing) was 163% (inactive).

**Q.** For Cc1ccc(Nc2cc(=O)n(C3CCCCC3)c(=O)[nH]2)cc1C, which event count (lower = more killing) is on record?
**A.** Its event count (lower = more killing) is 55.5% (inactive).

**Q.** For CCOC(=O)c1ccccc1NC(=O)Cn1c(-c2nonc2N)nc2ccccc21, which event count (lower = more killing) is on record?
**A.** The event count (lower = more killing) was 116% (inactive).

**Q.** With C[C@H]1CCC/C=C/C2C[C@H](O)CC2[C@H](O)/C=C/C(=O)O1 (some centres undefined) as the compound, how does the event count (lower = more killing) read?
**A.** Its event count (lower = more killing) is 12.8% (inactive).

**Q.** With CN1CCN(c2cc3c(c4c2[nH]c2ccccc24)C(=O)CC(C)(C)C3)CC1 as the compound, how does the event count (lower = more killing) read?
**A.** Its event count (lower = more killing) is 48.8% (inactive).

**Q.** With CCN1CCCC1CNC(=O)c1cc2c(-c3ccc(Cl)cc3)nn(C)c2s1 (centres undefined) as the compound, how does the event count (lower = more killing) read?
**A.** Its event count (lower = more killing) is 27.8% (inactive).

test system: LNCaP cell loss, flow cytometry event count, 4 d; test: as above; conditions: not given

**Q.** Which EC50 does the source give for CCCN(CCC)CCNC(=O)C1CCN(Cc2nc(-c3ccc(Cl)cc3)oc2C)CC1 here?
**A.** Its EC50 is 15.7 µM (inactive).

**Q.** With COc1ccc(-c2noc(CCC(=O)NCCCN3CCC(Cc4ccccc4)CC3)n2)cc1 as the compound, how does the EC50 read?
**A.** The EC50 was 15.6 µM (inactive).

**Q.** Which EC50 does the source give for CCN(CCNC(=O)C1CCN(Cc2nc(-c3cccc(Cl)c3)oc2C)CC1)c1ccccc1 here?
**A.** Its EC50 is 3.07 µM.

**Q.** Which EC50 does the source give for N=c1n(CCN2CCCCC2)c2ccccc2n1CC(O)COc1ccccc1 (centres undefined) here?
**A.** The EC50 was 19.2 µM (inactive).

**Q.** With COc1ccc(-c2noc(-c3cc(Cl)ccc3Cl)n2)cc1OC as the compound, how does the EC50 read?
**A.** The EC50 was 4.83 µM.

**Q.** Which EC50 does the source give for CCOC(=O)c1[nH]c(C)c(C(=O)N2CCc3ccccc32)c1C here?
**A.** The EC50 was 0.888 µM.

**Q.** Which EC50 does the source give for CCc1ccc(-c2nc(CN3CCC(C(=O)NCc4ccc(F)cc4)CC3)c(C)o2)cc1 here?
**A.** The EC50 was 5.17 µM.

**Q.** Which EC50 does the source give for Cc1noc(/C=C/c2ccco2)c1S(=O)(=O)N1CCC(C(=O)N2CCc3ccccc3C2)CC1 here?
**A.** Its EC50 is 4.53 µM.

**Q.** For CCOc1ccc(-c2cc(C(=O)NCCCN3CCN(CC)CC3)c3ccccc3n2)cc1, which EC50 is on record?
**A.** Its EC50 is 21.7 µM (inactive).

**Q.** With Cc1ccccc1CS(=O)(=O)CCC(=O)NCCCN1CCN(c2ccccc2F)CC1 as the compound, how does the EC50 read?
**A.** The EC50 was 6.85 µM.

**Q.** With Cc1oc(-c2ccc(Cl)cc2)nc1CN1CCC(C(=O)NCCCN2CCOCC2)CC1 as the compound, how does the EC50 read?
**A.** The EC50 was 6.27 µM.

**Q.** With Cn1c(=O)cc(OCC(=O)NCCCN2CCN(c3ccccc3F)CC2)c2ccccc21 as the compound, how does the EC50 read?
**A.** The EC50 was 0.101 µM.

**Q.** For CCN(CCNC(=O)C1CCN(Cc2nc(-c3ccc(Cl)cc3)oc2C)CC1)c1ccccc1, which EC50 is on record?
**A.** Its EC50 is 8.33 µM.

**Q.** Which EC50 does the source give for CCOC(=O)c1c(C)[nH]c(C(=O)COC(=O)C2CC2C)c1C (centres undefined) here?
**A.** The EC50 was 0.166 µM.

**Q.** With Cc1cc2c(=O)n(CC(=O)N3CCN(c4ccccc4)CC3)cnc2s1 as the compound, how does the EC50 read?
**A.** Its EC50 is 1.61 µM.

**Q.** Which EC50 does the source give for CCN1CCCC1CNC(=O)C1CCN(Cc2nc(-c3cccc(Br)c3)oc2C)CC1 (centres undefined) here?
**A.** Its EC50 is 6.68 µM.

**Q.** For COc1ccc2cc3cc(C(=O)Nc4ccccc4N4CCN(C)CC4)oc3nc2c1, which EC50 is on record?
**A.** Its EC50 is 19.3 µM (inactive).

**Q.** For COc1ccc(-c2cc(C(F)(F)F)nc(N3CCN(Cc4ccccc4)CC3)n2)cc1OC, which EC50 is on record?
**A.** Its EC50 is 0.549 µM.

**Q.** Which EC50 does the source give for CC(C)N1CCC2(CC1)N=C(c1ccc3c(c1)OCO3)CC(c1cc(Cl)ccc1O)N2 (centres undefined) here?
**A.** Its EC50 is 1.94 µM.

**Q.** Which EC50 does the source give for Cn1nc(-c2ccc(Cl)cc2)c2cc(C(=O)NCCCN3CCCC3)sc21 here?
**A.** The EC50 was 13 µM (inactive).

**Q.** With COc1ccccc1N1CCN(c2nc3ccccc3nc2C(C#N)C(=O)OC(C)C)CC1 (centres undefined) as the compound, how does the EC50 read?
**A.** The EC50 was 2.77 µM.
